Results on one compound are retold here after patent US12018327B2, “Methods and compositions relating to epoxide hydrolase genes” (The Regents of the University of California, priority 2018, dated 2024).

The test system of series [1] is human DCs. The series is described as follows: IL-10 secretion from human DCs, cytometric bead array. In kind it is cell-based. As to the method:
IL-10 secretion was measured using a cytometric bead array (BD Biosciences, San Jose, CA). Human DCs were isolated from the peripheral blood mononuclear cells (PBMCs) of two healthy human donors as previously described and treated with increasing concentrations of 12,13 DiHOME (Cayman Chemical, Ann Arbor, MI) solubilized in 0.2% dimethylsulfoxide (DMSO). […] IL-10 concentrations were determined according to the manufacturer's instructions.

A further series has as its system autologous T cells. The series is described as follows: Co-culture of 12,13 DiHOME treated DCs with autologous T cells, T cell subsets by flow cytometry. In kind it is cell-based, human. As to the method: Co-culture of human DCs and T cells in the presence of 12,13 DiHOME was performed as previously described. In brief, DCs were isolated from the PBMCs of two healthy human donors and treated for five days with 130 μM 12,13 DiHOME solubilized in 0.2% DMSO or vehicle (0.2% DMSO) in the presence of 20 ng mL^−1 IL-4 (R&D Systems, Minneapolis, MN) and 10 ng mL^−1 GM-CSF (R&D Systems, Minneapolis, MN). Fresh treatment media was added every 48 hrs throughout the course of the study. Eighteen hours prior to co-culture, DCs were stimulated with 10 ng mL^−1 TNFα, IL1β, and IL-6 (Peprotech, Rocky Hill, NJ) and 1 mM prostaglandin E2 (Stemcell Technologies, Cambridge, MA). DCs were subsequently washed and co-cultured with autologous T cells in the presence of 10 ng mL^−1 anti-CD28 and anti-CD49d (BD Bioscience, San Jose, CA).
After five days of co-culture, T cell subsets were analyzed by flow cytometry. To assess cytokine secretion, cells were stimulated for 16 hrs with Phorbol Myristate Acetate-Ionomycin (ACROS, Morris Planes, NJ) and GolgiPlug (Gplug; BD Biosciences, San Jose, CA). Flow cytometry data was collected on a BD LSR II flow cytometer. Helper T cell subsets were defined as follows: Th1 CD3+CD4+IFNγ+; Th2 CD3+CD4+IL-4+; Th17 CD3+CD4+IL-17+, Treg CD3+CD4+CD25+FoxP3+. The human T cell gating strategy can be found in FIG. 4D.
Background: A flow cytometer gives signals particle by particle.

In series [2] the test system is human DCs (CD3-CD19-CD11c+). In words: Human DC maturation by flow cytometry (PPARγ-regulated proteins). In kind it is cell-based. As to the method: Human DC maturation was assessed by flow cytometry. PBMCs were isolated from two healthy human donors using Ficoll-Hypaque gradient centrifugation as previously described and cultured for five days in the presence of 20 ng mL^−1 IL-4 and 10 ng mL^−1 GM-CSF. Monocytic DCs (DCs) were defined as CD3-CD19-CD11c+. The DC gating strategy can be found in FIG. 4E.

Series [3] has as its system human DCs. In words: Gene expression in human DCs by qPCR. In kind it is cell-based. As to conditions: 130 μM, two days; relative to beta-actin. The method, then: Gene expression was examined in human DCs. DCs were isolated as described above and treated for two days with 130 μM 12,13 DiHOME. Cells were washed twice in PBS, and RNA was extracted using the RNAqueous™ Micro Kit (Ambion, Foster City, CA). The RT2 First Strand Kit (Qiagen, Germantown, MD) was used to synthesize cDNA, and expression of CD36, CD1a, FABP4, and HADH relative to beta-actin was measured using Power SYBR Green PCR Master Mix (ThermoFisher Scientific, Waltham, MA) and a QuantStudio 6 Real-Time PCR system (ThermoFisher Scientific, Waltham, MA).
In general terms: Real-time PCR tracks product formation cycle by cycle.

In the case of `CCCCCC(O)C(O)C/C=C\CCCCCCCC(=O)O` (stereo not drawn) [12,13 DiHOME], the “IL-10 secretion 24 hours after treatment” value in the series on human DCs [1] (130 μM, 24 hr) is recorded as “significant decreases”. In the series on human DCs [1] (130 μM, 48 hr), the “IL-10 secretion 48 hours after treatment” value is reported as “significant decreases”. For the same compound, the “IL-10 secretion from human DCs” value with human DCs [1] (75, 130, 200 μM, supernatant after 24 hours) is on record as “dose-dependent decrease”. In the series with autologous T cells (DC and T cell co-culture), the cell viability entry is recorded as “without decreasing”. Further, in the series with autologous T cells (DCs treated with 130 μM), the “distribution of helper T cells” value is “significant shift” and the “frequency of Tregs (CD3+CD4+CD25+FoxP3+)” value was “specific decrease”. Also, the “expression of CD36 on DCs” value in series [2] (high concentrations (200 μM)) is listed as “increase”. For the same compound, the cell viability entry in series [2] (human DCs, flow cytometry) is “did not alter”. Further, in series [2] (increasing doses), the “expression of CCR7 on DCs” value is recorded as “significant decrease”, the “expression of CD1a on DCs” value is “significant decrease” and the “expression of CD80 on DCs” value is given as “significant decrease”. In the series with human DCs [3], the “expression of CD1a (RNA)” value is on record as “significant decrease”, the “expression of CD36 (RNA)” value is “significant increases”, the “expression of FABP4 (RNA)” value is “significant increases” and the “expression of HADH (RNA)” value was “significant increases”.
